Data reported in patent publication US11389415B2, “Methods of regulating cannabinoid receptor activity-related disorders and diseases” (The United States of America as represented by the …, priority 2012, dated 2022).

How the values were obtained:
[1] = tested on: Sox4, Olig1, Galnt3, Cdkn3, Ccna2, Bub1b mRNA; test: qRT-PCR of selected genes in C6 xenograft tumors; format: in vivo, mouse; details: MNF-treated mice
Protocol: Total RNA extraction, cDNA synthesis and qRT-PCR analysis. Total RNA (including the DNase treatment step) was isolated from frozen tumor tissues using the RNeasy mini kit (Qiagen, Valencia, Calif.). RNA concentration and quality was measured using the NanoDrop spectrophotometer (NanoDrop Technologies, Wilmington, Del.). Subsequently, 2 μg total RNA was reverse-transcribed to cDNA using the qSCRIPT™ cDNA SuperMix (Quanta Biosciences, Gaithersburg, Md.). Quantitative real-time PCR (qRT-PCR) reactions were performed to validate the expression of 6 genes that were selected from the microarray analysis. The reactions were carried out with SYBR® Green PCR master mix on an ABI Prism 7300 sequence detection system (Applied Biosystems) using commercially available target probes for Sox4, Olig1, Galnt3, Cdkn3, Ccna2, and Bub1b (PrimeTime qPCR Assays and Primers, IDT DNA Technologies, Coralville, Iowa). The data was analyzed using the 2-ΔΔCt method with Gapdh and vehicle-treated tumors as internal controls. Controls consisting of reaction mixture without cDNA were negative in all runs.

CYP2D6 = target: T1, CYP2D6 (Homo sapiens, UniProt P10635); test: CYP inhibition in human liver microsomes, CYP2D6; format: in vitro ADME; details: 10 μM, 20 minutes, 37° C.
T1 construct: from tissue; host or cells: human liver microsomes
Protocol: Incubations containing known CYP inhibitors were also included as positive controls. Formation of the model substrate metabolites was measured by LC-MS/MS and compared to control incubations (incubation of substrates with microsomes and cofactors, no test articles or inhibitors). CYP activity in presence of test compound (MNF) that was less than 70% of control was considered significant. MNF (10 μM) inhibited CYP2D6 and CYP3A4 to less than 70% of the control. Further, the primary metabolite was determined to be O-demethylated-MNF. These studies indicate that MNF alters the metabolism of other drugs or endogenous compounds that are substrates for CYP2D6 and/or CYP3A4 isoforms, when present in the plasma or liver at 10 μM or higher.

HepG2 cells = test: Scratch wound-healing assay, HepG2 cells; format: cell-based, human; details: HepG2, 1 μM
Protocol: Scratch assays. These assays were carried out essentially as described previously (Fiori et al., Endocrinology 150: 2551-2560, 2009). In brief, cells were seeded in 12-well nontreated polystyrene cell culture plates with flat bottom (Greiner Bio-One, Monroe, N.C.). Once the cells became confluent, a scratch wound was made with a pipette tip and pictured immediately (time 0). […] Cell migration was examined at 12, 24, 36, 48 hours and 12, 18, 24, 48 hours after scratch for the HepG2 and PANC-1 cells, respectively. Images of the same field were taken every 3 hours to determine the rate of cell migration. Images were captured on an Axiovert 200 inverted microscope (Carl Zeiss, Thornwood, N.Y.) mounted with an AxioCam HRc digital camera (Carl Zeiss) and the measurement of scratch area was performed with ImageJ 1.46s software (National Institutes of Health, Bethesda, Md.). Each study was performed in duplicate dishes and repeated at least twice.

[2] = Dose escalation and 7-day repeat dose range finding study in Sprague-Dawley rats; format: in vivo, rat; details: for Gross Necropsy Observation: interim (Day 8) and terminal (Day 14), red: thymus, mandibular lymph node, black or necrosis: tail
Protocol: A single dose escalation study was performed to select dose levels for 7-day repeat dose study with IV administration in Sprague-Dawley rats. Dose levels were 0, 5, 10 and 25 mg/kg.

ERK1/2 = ERK1/2 phosphorylation (GPR55 downstream signaling) in HepG2 cells; format: cell-based, human
Protocol: Western blot analysis. For detection of intracellular signaling proteins, cells were lysed in radioimmunoprecipitation buffer containing EGTA and EDTA (Boston BioProducts, Ashland, Mass.). The lysis buffer contained a protease inhibitor cocktail (Sigma-Aldrich) and phosphatase inhibitor cocktail (Calbiochem, San Diego, Calif.). Equivalent amount of proteins (14 and 54 μg/well for PANC-1 and HepG2 cells, respectively) were separated on 4 to 12% precast gels (Invitrogen, Carlsbad, Calif.) using SDS-polyacrylamide gel electrophoresis under reducing conditions and then electrophoretically transferred onto polyvinylidene fluoride membrane (Invitrogen). Western blots were performed according to standard methods, which involved blocking in 5% non-fat milk and incubated with the antibody of interest, followed by incubation with a secondary antibody conjugated with the enzyme horseradish perodixase. The detection of immunoreactive bands was performed by chemiluminescence using the ECL Plus Western Blotting Detection System (GE Healthcare, Piscataway, N.J.). The quantification of bands was done by volume densitometry by using ImageJ software. The rabbit polyclonal antibodies against EGFR were obtained from Cell Signaling Technology, Inc. (Beverly, Mass.) and the monoclonal anti-Hsp90 was purchased from Santa Cruz Biotechnology, Inc. (Santa Cruz, Calif.).
Effect of MNF on O-1602-mediated increase in cell signaling. Serum-starved cells were pretreated in the absence or presence of 1 μM MNF for 10 minutes followed by a 10 minute incubation with 0, 2.5 and 10 μM O-1602 or 10% FBS, after which the levels of total ERK2 and phosphorylated forms of ERK1/2 (pErk1/2, Thr202/Tyr204), were determined by Western blotting technique. All primary antibodies were purchased from Cell Signaling Technology and used at a dilution recommended by the manufacturer.

CAPAN = test: tumor cell growth, CAPAN; details: read-out: IC50 (uM), CAPAN (Pancreatic C)

T1 sequence (P10635 whole entry): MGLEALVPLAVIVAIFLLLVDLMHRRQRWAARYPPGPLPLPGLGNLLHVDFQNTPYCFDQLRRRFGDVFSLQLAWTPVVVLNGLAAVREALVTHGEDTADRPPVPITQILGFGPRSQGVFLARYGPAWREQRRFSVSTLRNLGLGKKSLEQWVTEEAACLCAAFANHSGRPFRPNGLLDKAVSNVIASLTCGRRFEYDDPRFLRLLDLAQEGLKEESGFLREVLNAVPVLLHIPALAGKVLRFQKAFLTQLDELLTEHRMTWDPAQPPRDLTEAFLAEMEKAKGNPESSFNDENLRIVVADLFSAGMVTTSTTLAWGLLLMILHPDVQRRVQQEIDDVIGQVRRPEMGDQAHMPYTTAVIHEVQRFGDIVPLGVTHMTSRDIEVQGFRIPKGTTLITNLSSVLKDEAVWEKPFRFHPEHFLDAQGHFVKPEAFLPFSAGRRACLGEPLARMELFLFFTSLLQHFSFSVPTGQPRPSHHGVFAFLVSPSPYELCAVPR

Row | Compound | mRNA expression by quantitative RT-PCR compared to control [1] | CYP2D6 activity in presence of test compound (CYP2D6) | cell motility, compound alone (HepG2 cells) | effect on AM251-mediated increase in cell motility (HepG2 cells; AM251 1 μM) | effect on wound closure evoked by O-1602 (HepG2 cells; O-1602 1 μM) | Body Weight ([2]; Sprague Dawley rats, iv, 0, 5, 10, or 25 mg/kg/day, 7-day) | Clinical Pathology: increases in WBC, % Neut., % RET/REA, and PLC ([2]; high-dose males and females, Day 8 and Day 14) | Gross Necropsy Observation ([2]; black discoloration or necrosis, tail) | Gross Necropsy Observation ([2]; red discoloration, thymus and lymph node) | toxic effects ([2]; single dose escalation, IV, 0, 5, 10 and 25 mg/kg, Sprague-Dawley rats) | effect on O-1602-mediated ERK phosphorylation (ERK1/2; HepG2, 1 μM pretreatment 10 minutes) | effect on serum-induced ERK phosphorylation (ERK1/2; HepG2, 1 μM pretreatment, 10% FBS) | IC50 (CAPAN)
1 | COc1ccc(C[C@@H](C)NC[C@H](O)c2cc(O)cc(O)c2)c2ccccc12 [(R,R′)-MNF, (R,R′)-4′-methoxy-1-naphthylfenoterol] | decreased the expression of Bub1b, Cdkn3 Ccna2, Olig1, Sox4, and Galnt3 | less than 70 % of the control | had no effect on the motility of HepG2 cells | significant inhibitory effect toward AM251-mediated increase in cell motility | absent in HepG2 cells | comparable | Increases: ~2-fold | Discolored black | Discolored red: | Toxic effects were minimal | abrogated O-1602 responsiveness | potently inhibited serum-induced ERK phosphorylation in both cell lines | 
2 | COc1cccc2c1C(=O)c1c(O)c3c(c(O)c1C2=O)C[C@@](O)(C(=O)CO)C[C@@H]3O[C@H]1C[C@H](N)[C@H](O)[C@H](C)O1 [Doxorubicin, reference compound] |  |  |  |  |  |  |  |  |  |  |  |  | 0.23 µM
